Values joined by “and” are separate entries in the source; they are usually repeats but may differ in a detail not shown here. Equal entries are not always repeated. Inconclusive results and toxic doses are left out. The calls were made as follows: active = survival T/C of 150% or more; inactive = T/C below 125% in these data.
Tested on: P388 leukemia ip, CD2F1 mice, survival T/C
Experiment: NCI In Vivo Anticancer Drug Screen. Data for tumor model P388 Leukemia (intraperitoneal) in CD2F1 (CDF1) mice
Conditions: endpoint: median survival time, higher = longer survival
How it was run: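 Mice carrying the transplanted tumor received test compound or vehicle. Survival was recorded in each group, and the value is the treated-group measurement divided by that of the vehicle-treated control group.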

[1] = dose: 15.0 mg/kg/injection, schedule: Q01DX005 (ip), vehicle: saline with Tween-80
[2] = dose: 30.0 mg/kg/injection, schedule: Q01DX005 (ip), vehicle: saline with Tween-80
[3] = dose: 60.0 mg/kg/injection, schedule: Q01DX005 (ip), vehicle: saline with Tween-80
[4] = dose: 120.0 mg/kg/injection, schedule: Q01DX005 (ip), vehicle: saline with Tween-80
[5] = dose: 240.0 mg/kg/injection, schedule: Q01DX005 (ip), vehicle: saline with Tween-80
[6] = dose: 50.0 mg/kg/injection, schedule: Q01DX009 (ip), vehicle: saline
[7] = dose: 100.0 mg/kg/injection, schedule: Q01DX009 (ip), vehicle: saline

Measured: T/C

C=CC(Br)CCCBr (centres undefined)
inactive: dose: 12.5 mg/kg/injection, schedule: Q04DX002 (ip), vehicle: saline with Tween-80 106 % of control | dose: 25.0 mg/kg/injection, schedule: Q04DX002 (ip), vehicle: saline with Tween-80 112 % of control | dose: 50.0 mg/kg/injection, schedule: Q04DX002 (ip), vehicle: saline with Tween-80 101 % of control | dose: 100.0 mg/kg/injection, schedule: Q04DX002 (ip), vehicle: saline with Tween-80 104 % of control

CC1(C)COC(=O)C1=C(C#N)C#N
inactive: dose: 25.0 mg/kg/injection, schedule: Q04DX003 (ip), vehicle: saline 100 % of control | dose: 50.0 mg/kg/injection, schedule: Q04DX003 (ip), vehicle: saline 98 % of control | dose: 100.0 mg/kg/injection, schedule: Q04DX003 (ip), vehicle: saline 102 % of control

CC(=O)OCC1OC([S][Sb]([CH3])[CH3])C(OC(C)=O)C(OC(C)=O)C1OC(C)=O (centres undefined)
inactive: [1] 112 % of control | [2] 101 % of control | [3] 115 % of control

CCN=NNc1ccc([N+](=O)[O-])cc1
inactive: dose: 12.5 mg/kg/injection, schedule: Q01DX009 (ip), vehicle: distilled water + Tween-80 95 % of control | dose: 25.0 mg/kg/injection, schedule: Q01DX009 (ip), vehicle: distilled water + Tween-80 100 % of control | dose: 50.0 mg/kg/injection, schedule: Q01DX009 (ip), vehicle: distilled water + Tween-80 105 % of control | dose: 100.0 mg/kg/injection, schedule: Q01DX009 (ip), vehicle: distilled water + Tween-80 100 % of control | dose: 200.0 mg/kg/injection, schedule: Q01DX009 (ip), vehicle: distilled water + Tween-80 112 % of control

CC(C)CC1([N+](=O)[O-])CN(C)CC2CCCCN2C1 (centres undefined)
inactive: dose: 25.0 mg/kg/injection, schedule: Q04DX002 (ip), vehicle: water 102 % of control | dose: 50.0 mg/kg/injection, schedule: Q04DX002 (ip), vehicle: water 107 % of control | dose: 100.0 mg/kg/injection, schedule: Q04DX002 (ip), vehicle: saline 102 % of control | dose: 100.0 mg/kg/injection, schedule: Q04DX002 (ip), vehicle: water 99 % of control

Cn1nnc2c(C(N)=O)ncn2c1=O
active: dose: 100.0 mg/kg/injection, schedule: Q01DX005 (ip), vehicle: saline with Tween-80 189 % of control | dose: 100.0 mg/kg/injection, schedule: Q01DX005 (ip), vehicle: saline 164 % of control and 217 % of control | dose: 200.0 mg/kg/injection, schedule: Q01DX005 (ip), vehicle: saline with Tween-80 254 % of control
inactive: dose: 25.0 mg/kg/injection, schedule: Q01DX005 (ip), vehicle: saline with Tween-80 118 % of control | dose: 25.0 mg/kg/injection, schedule: Q01DX005 (ip), vehicle: saline 119 % of control and 121 % of control
225 % of control and 87 % of control: dose: 200.0 mg/kg/injection, schedule: Q01DX005 (ip), vehicle: saline

O=C(O)c1cc2c([nH]1)-c1cccnc1C(=O)C2=O
inactive: [3] 101 % of control | [4] 105 % of control | [5] 101 % of control

O=C(O)CCCCC=C(c1ccccc1)c1ccccc1
inactive: dose: 50.0 mg/kg/injection, schedule: Q01DX005 (ip), vehicle: saline + Tween-80 + alcohol 101 % of control | dose: 100.0 mg/kg/injection, schedule: Q01DX005 (ip), vehicle: saline + Tween-80 + alcohol 102 % of control | dose: 200.0 mg/kg/injection, schedule: Q01DX005 (ip), vehicle: saline + Tween-80 + alcohol 101 % of control

Nc1nn(-c2ccc(Br)cc2)c2cccc[n+]12
inactive: dose: 12.5 mg/kg/injection, schedule: Q01DX009 (ip), vehicle: saline with Tween-80 105 % of control | dose: 25.0 mg/kg/injection, schedule: Q01DX009 (ip), vehicle: other 115 % of control | dose: 25.0 mg/kg/injection, schedule: Q01DX009 (ip), vehicle: saline with Tween-80 100 % of control | dose: 50.0 mg/kg/injection, schedule: Q01DX009 (ip), vehicle: other 97 % of control | dose: 50.0 mg/kg/injection, schedule: Q01DX009 (ip), vehicle: saline with Tween-80 100 % of control and 97 % of control

O=C1C2=C(C(=O)c3cnccc31)C1C=CC2CC1 (centres undefined)
inactive: dose: 25.0 mg/kg/injection, schedule: Q01DX005 (ip), vehicle: DMSO 98 % of control | dose: 50.0 mg/kg/injection, schedule: Q01DX005 (ip), vehicle: DMSO 92 % of control and 98 % of control | dose: 50.0 mg/kg/injection, schedule: Q01DX005 (ip), vehicle: Klucel (hydroxypropylcellulose) (HPC) 106 % of control | dose: 100.0 mg/kg/injection, schedule: Q01DX005 (ip), vehicle: DMSO 122 % of control | dose: 100.0 mg/kg/injection, schedule: Q01DX005 (ip), vehicle: Klucel (hydroxypropylcellulose) (HPC) 103 % of control | dose: 200.0 mg/kg/injection, schedule: Q01DX005 (ip), vehicle: Klucel (hydroxypropylcellulose) (HPC) 98 % of control

Cc1ccc(S(=O)(=O)C(Cl)(SCl)Sc2ccccc2)cc1 (centres undefined)
inactive: dose: 50.0 mg/kg/injection, schedule: Q01DX009 (ip), vehicle: Klucel (hydroxypropylcellulose) (HPC) 95 % of control | dose: 100.0 mg/kg/injection, schedule: Q01DX009 (ip), vehicle: Klucel (hydroxypropylcellulose) (HPC) 93 % of control | dose: 200.0 mg/kg/injection, schedule: Q01DX009 (ip), vehicle: Klucel (hydroxypropylcellulose) (HPC) 93 % of control

COC(=O)c1nc(N)nc(C(=O)OC)c1C(=O)c1cccs1
inactive: [3] 98 % of control | [4] 99 % of control

O=C1C2CCN(CC2)C1(CO)CO
inactive: [6] 102 % of control | [7] 105 % of control | dose: 200.0 mg/kg/injection, schedule: Q01DX009 (ip), vehicle: saline 105 % of control

CCOC(=O)C(Cc1ccc(N)cc1)N1C(=O)c2ccccc2C1=O (centres undefined)
inactive: dose: 50.0 mg/kg/injection, schedule: Q01DX009 (ip), vehicle: distilled water + Tween-80 + alcohol 100 % of control | dose: 100.0 mg/kg/injection, schedule: Q01DX009 (ip), vehicle: distilled water + Tween-80 + alcohol 95 % of control | dose: 200.0 mg/kg/injection, schedule: Q01DX009 (ip), vehicle: distilled water + Tween-80 + alcohol 91 % of control

CC1=CC(=O)[C@@H](O)[C@]2(C)[C@H]3[C@@H](O)[C@H](O)[C@@](C)(O)[C@@H]4[C@@H](O)C(=O)O[C@H](C[C@@H]12)[C@]34C
inactive: dose: 1.0 mg/kg/injection, schedule: Q01DX009 (ip), vehicle: saline + alcohol 99 % of control | dose: 2.0 mg/kg/injection, schedule: Q01DX009 (ip), vehicle: saline + alcohol 101 % of control | dose: 4.0 mg/kg/injection, schedule: Q01DX009 (ip), vehicle: saline + alcohol 99 % of control | dose: 8.0 mg/kg/injection, schedule: Q01DX009 (ip), vehicle: saline + alcohol 99 % of control

C=CC(=NC(C)C)NC(C)C
inactive: dose: 1.56 mg/kg/injection, schedule: Q01DX009 (ip), vehicle: saline 100 % of control | dose: 3.13 mg/kg/injection, schedule: Q01DX009 (ip), vehicle: saline 101 % of control

COc1ccc(C2Cc3cc(OC)c(OC)cc3C(c3ccc(OC)c(OC)c3)N2)cc1OC (centres undefined)
inactive: [3] 97 % of control | [4] 88 % of control | [5] 89 % of control

CCC1=CC2CN(CCc3c([nH]c4ccccc34)C(C(=O)OC)(c3cc4c(cc3OC)N(C)C3C(C(=O)OC)=CC5(CC)CCCN6CCC43C65)C2)C1 (centres undefined)
inactive: dose: 12.5 mg/kg/injection, schedule: Q01DX001 (ip), vehicle: water 100 % of control | dose: 25.0 mg/kg/injection, schedule: Q01DX001 (ip), vehicle: water 100 % of control | dose: 50.0 mg/kg/injection, schedule: Q01DX001 (ip), vehicle: water 112 % of control | dose: 100.0 mg/kg/injection, schedule: Q01DX001 (ip), vehicle: water 100 % of control | dose: 200.0 mg/kg/injection, schedule: Q01DX001 (ip), vehicle: water 100 % of control

CN(Cc1cnc2nc(N)nc(N)c2n1)c1ccc(C(=O)NC(CCC(=O)OCc2c(Cl)cccc2Cl)C(=O)OCc2c(Cl)cccc2Cl)cc1 (centres undefined)
active: dose: 3.75 mg/kg/injection, schedule: Q01DX005 (ip), vehicle: saline with Tween-80 168 % of control | dose: 7.5 mg/kg/injection, schedule: Q01DX005 (ip), vehicle: saline with Tween-80 207 % of control and 237 % of control
inactive: [1] 105 % of control and 92 % of control | [2] 87 % of control

Cn1c(=S)[nH]c2scc(-c3ccccc3)c2c1=O
inactive: [3] 87 % of control | [5] 96 % of control

CC[As](CC)SCC1OC(OC(C)=O)C(OC(C)=O)C(OC(C)=O)C1OC(C)=O (centres undefined)
inactive: dose: 50.0 mg/kg/injection, schedule: Q01DX009 (ip), vehicle: saline + alcohol 99 % of control | [6] 110 % of control | dose: 100.0 mg/kg/injection, schedule: Q01DX009 (ip), vehicle: saline + alcohol 100 % of control | [7] 113 % of control | dose: 200.0 mg/kg/injection, schedule: Q01DX009 (ip), vehicle: saline + alcohol 109 % of control

CC([NH-])C(=O)O.[Cu+2].[NH-]C(Cc1cnc[nH]1)C(=O)O (centres undefined)
inactive: dose: 25.0 mg/kg/injection, schedule: Q01DX009 (ip), vehicle: saline 97 % of control

— PubChem BioAssay AID330 (DTP/NCI, 2004)
